# Test results taken from patent EP0449955B1, “SYNTHETIC HIV-LIKE PEPTIDES, THEIR COMPOSITIONS AND USES” (CLARITY TECHNOLOGIES INCORPORATED, priority 1988, dated 1996).
# Entries after “also recorded” stand apart in the source; their conditions may differ.
# Tests used:
# antibodies to HIV-2 = experiment: Rapid EIA with latex-immobilized peptide reagents, HIV-2; assay type: binding; details: free peptide passively adsorbed onto carboxylate latex
# Procedure: A 125 microliter volume of 10% latex was added to a 375 microliter volume of deionized water, and mixed with an equal volume (0.5ml) of 1M carbodiimide, pH 4.5. The mixture was shaken gently a room temperature for 1 hour, and then washed 3 times by centrifugation at 9,000 x g for 10 minutes, removal of supernate, and resuspension of the pellet in a 12-14 ml volume of deionized water, pH 4.5. The free peptides at 1 mg/ml concentration (500 micrograms/ml of each peptide 4S36 and 5S70), or the peptide-BSA conjugate of peptides 4S36 and 5S70 at 500 micrograms/ml were added to the final washed activated latex pellet (1 ml volume of peptide containing solution per 125 microliters original volume of latex). […] It was determined that this stock solution of latex coated with peptide-BSA conjugate could be diluted 1:10-1:30 with latex diluent buffer for use in the rapid EIA described below.
# Serum specimens were diluted 1:8 for the rapid EIA in a serum diluent buffer consisting of 0.03M Tris, pH 8 containing 0.8% NaCl, 0.05% NaN₃, 0.05% Triton x-100 (trademark). […] The reaction was stopped after 3-4 minutes by adding a drop of 4N H₂SO₄, and the test device could be retained as a permanent record of positive (blue-purple color) or negative (white membrane) until the results were recorded. […]
# SIV/HIV-2 antibodies = experiment: EIA of HIV-2 gp32 peptide-protein conjugates against macaque serum pools; assay type: binding; details: peptide conjugated via C-terminus to BSA (SMCC), coated at 10 micrograms peptide/ml; 1:101 dilution of SIV+ macaque serum pool; Figure 5
# Procedure: The free peptides or peptide-protein conjugates of Figures 1-13 were initially screened for immunoreactivity by coating each well of polystyrene microtiter EIA plates (Costar, Cambridge, Massachusetts, U.S.A.) with 0.2 ml amounts of concentrations of 5-50 micrograms/ml peptide in Tris buffer, 10 mM, pH 8.0, at 4°C overnight. Peptides or peptide-protein conjugates showing immunoreactivity by EIA were then further diluted for coating to determine the minimal concentrations required that allowed maximal immunoreactivity with antibodies to HIV, and minimal nonspecific reactivity with normal sera. The EIA tests were performed as follows: The coating solution was removed from each well and the wells were blocked at 37°C for 30 minutes with a solution of 50 mM phosphate, 100 mM NaCl, pH 7.4, 1% BSA, 0.5% gelatin. The wells were then aspirated dry with a microtiter plate washer and washed 3 times with a solution of 50 mM phosphate, 100 mM NaCl, .05% Tween 20, (trademark) pH 7.4 (PBST). […] Reactions were stopped with 50 microliters of 4N H₂SO₄, and the color development was quantitated in a Multiscan plate reader at A₄₉₂. […] Most peptides and peptide conjugates were initially screened against a 1:101 dilution of pools of HIV positive or HIV negative sera, and the same serum pool was used to allow quantitative comparison of immunoreactivity of different free peptides or peptide-protein conjugates.
# The peptides in Figures 1 and 5 were synthesized as described in Example 1 and conjugated to KLH or BSA as described in Example 2. These peptide-protein conjugates were coated to polystyrene microtiter plates all at a concentration 10 micrograms peptide/ml and evaluated for immunoreactivity as described in Example 3, using a 1:101 dilution of a pool of sera (HIV+/SIV+, respectively) containing antibodies to HIV-1 (Figure 1) or to HIV-2 (Figure 5), as well as pooled serum (HIV-/SIV-, respectively) containing no antibodies to HIV-1 or HIV-2. […]
sequence,measurement,setting,value
ARLNSWGCAFRQVCHGC [2S25],discrimination of HIV-2+ from HIV-2- serum samples,antibodies to HIV-2,capable of discriminating
same,immunoreactivity with SIV/HIV-2 antibodies,SIV/HIV-2 antibodies,maximally immunoreactive; also recorded: Significant immunoreactivity; also recorded: best immunoreactivity
